Reference: patent US8236808B2, “Pyrazine derivatives as ENAC blockers” (Novartis AG, priority 2008, dated 2012)
Where a name gives a salt, the structure may show the parent alone.

Biological target: T1, epithelial sodium channel (ENaC) (Homo sapiens, UniProt P37088+P51168+P51170)
T1 construct: host or cells: primary human bronchial epithelial cells (HBECs), differentiated at the air-liquid interface
T1 sequence (P37088 1-669): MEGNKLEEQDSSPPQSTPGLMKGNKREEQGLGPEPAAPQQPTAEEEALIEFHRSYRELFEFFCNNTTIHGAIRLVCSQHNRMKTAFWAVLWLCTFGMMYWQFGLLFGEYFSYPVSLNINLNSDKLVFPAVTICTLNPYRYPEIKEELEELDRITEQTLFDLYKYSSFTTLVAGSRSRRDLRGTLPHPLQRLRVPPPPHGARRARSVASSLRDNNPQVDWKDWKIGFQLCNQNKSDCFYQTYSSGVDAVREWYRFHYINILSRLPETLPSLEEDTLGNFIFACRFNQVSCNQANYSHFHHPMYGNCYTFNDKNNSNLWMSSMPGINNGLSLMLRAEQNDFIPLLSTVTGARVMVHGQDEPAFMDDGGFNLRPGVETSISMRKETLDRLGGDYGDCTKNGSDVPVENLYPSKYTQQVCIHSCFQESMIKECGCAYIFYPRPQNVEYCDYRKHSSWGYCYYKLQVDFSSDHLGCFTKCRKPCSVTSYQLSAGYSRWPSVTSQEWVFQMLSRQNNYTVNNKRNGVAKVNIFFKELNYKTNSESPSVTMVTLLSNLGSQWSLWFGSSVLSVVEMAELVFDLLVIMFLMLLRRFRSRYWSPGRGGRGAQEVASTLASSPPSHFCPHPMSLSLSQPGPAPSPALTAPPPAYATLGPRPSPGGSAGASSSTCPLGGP
T1 sequence (P51168 1-640): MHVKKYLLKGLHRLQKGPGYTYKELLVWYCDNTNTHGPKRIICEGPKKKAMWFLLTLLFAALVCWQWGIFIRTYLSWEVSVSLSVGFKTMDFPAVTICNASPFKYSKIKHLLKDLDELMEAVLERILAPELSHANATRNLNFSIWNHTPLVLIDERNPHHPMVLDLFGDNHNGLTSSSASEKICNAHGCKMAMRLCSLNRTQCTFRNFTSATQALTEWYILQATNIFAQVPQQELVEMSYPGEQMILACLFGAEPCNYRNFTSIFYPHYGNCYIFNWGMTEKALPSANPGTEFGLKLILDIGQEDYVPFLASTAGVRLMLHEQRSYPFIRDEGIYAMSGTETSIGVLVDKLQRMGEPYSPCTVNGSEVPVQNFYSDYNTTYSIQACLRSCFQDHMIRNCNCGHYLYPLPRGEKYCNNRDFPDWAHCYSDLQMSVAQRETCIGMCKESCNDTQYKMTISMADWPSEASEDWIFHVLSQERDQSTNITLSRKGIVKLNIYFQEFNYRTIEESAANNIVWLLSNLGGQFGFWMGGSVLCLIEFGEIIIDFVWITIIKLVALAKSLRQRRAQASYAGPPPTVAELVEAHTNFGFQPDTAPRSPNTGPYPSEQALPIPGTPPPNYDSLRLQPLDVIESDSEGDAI
T1 sequence (P51170 1-649): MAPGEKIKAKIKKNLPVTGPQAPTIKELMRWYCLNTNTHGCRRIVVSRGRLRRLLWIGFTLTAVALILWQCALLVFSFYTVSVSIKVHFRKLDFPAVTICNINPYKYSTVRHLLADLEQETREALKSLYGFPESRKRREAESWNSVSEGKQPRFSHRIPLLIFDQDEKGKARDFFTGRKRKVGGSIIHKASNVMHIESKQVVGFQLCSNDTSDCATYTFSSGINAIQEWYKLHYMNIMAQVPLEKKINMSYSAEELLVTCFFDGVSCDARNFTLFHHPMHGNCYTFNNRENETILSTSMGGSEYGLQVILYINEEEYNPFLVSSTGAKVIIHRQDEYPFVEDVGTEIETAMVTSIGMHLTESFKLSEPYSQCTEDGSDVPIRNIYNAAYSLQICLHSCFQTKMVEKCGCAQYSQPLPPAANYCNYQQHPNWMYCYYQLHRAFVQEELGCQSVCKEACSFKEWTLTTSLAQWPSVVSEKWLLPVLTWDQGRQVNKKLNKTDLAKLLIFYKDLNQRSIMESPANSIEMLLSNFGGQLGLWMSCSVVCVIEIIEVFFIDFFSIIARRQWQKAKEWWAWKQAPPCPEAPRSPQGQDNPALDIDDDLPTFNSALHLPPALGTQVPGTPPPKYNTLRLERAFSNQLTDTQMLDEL
Assay: Short circuit current (ISC) measurements in human bronchial epithelial cells, inhibition of amiloride-sensitive ISC
Format: cell-based
Conditions: inhibition of the amiloride-sensitive ISC; HBECs cultured at air-liquid interface, Ussing chamber, compound added to apical chamber
Protocol: Compounds of formula (I), hereinafter referred to alternatively as “agents of the invention”, are useful as pharmaceuticals. In particular, the compounds have good ENaC blocker activity and may be tested in the following assays.
Human Bronchial Epithelial cells (HBECs) (Cambrex) were cultured under air-liquid interface conditions to provide a well differentiated mucociliary phenotype.
HBECs were cultured using a modification of the method described by Gray and colleagues (Gray et al., 1996). Cells were seeded in plastic T-162 flasks and were grown in bronchial epithelial cell growth medium (BEGM; Cambrex) supplemented with bovine pituitary extract (52 μg/mL), hydrocortisone (0.5 μg/mL), human recombinant epidermal growth factor (0.5 ng/mL), epinephrine (0.5 μg/mL), transferrin (10 μg/mL), insulin (5 μg/mL), retinoic acid (0.1 μg/mL), triiodothyronine ([…]), gentamycin (50 μg/mL) and amphotericin B (50 ng/mL). Medium was changed every 48 hours until cells were 90% confluent. Cells were then passaged and seeded (8.25×10^5 cells/insert) on polycarbonate Snapwell inserts (Costar) in differentiation media containing 50% DMEM in BEGM with the same supplements as above but without triiodothyronine and a final retinoic acid concentration of 50 nM (all-trans retinoic acid). Cells were maintained submerged for the first 7 days in culture, after which time they were exposed to an apical air interface for the remainder of the culture period. At this time, media was changed to DMEM:F12 media containing 2% v/v Ultroser G for the remainder of culture. Amphotericin B was removed from all media 3 feeds prior to use in the Ussing Chambers. Cells were used between days 7 and 21 after establishment of the apical-air interface. At all stages of culture, cells were maintained at 37° C. in 5% CO2 in an air incubator.
Snapwell inserts were mounted in Vertical Diffusion Chambers (Costar) and were bathed with continuously gassed Ringer solution (5% CO2 in O2; pH 7.4) maintained at 37° C. containing (in mM): 120 NaCl, 25 NaHCO3, 3.3 KH2PO4, 0.8 K2HPO4, 1.2 CaCl2, 1.2 MgCl2, and 10 glucose. The solution osmolarity was between 280 and 300 mOsmol/kg H2O for all physiological salt solutions used. Cells were voltage clamped to 0 mV (model EVC4000; WPI). RT was measured by applying a 1- or 2-mV pulse at 30-s intervals and calculating RT by Ohm's law. Data were recorded using a PowerLab workstation (ADInstruments).
Test compounds were prepared as a 10 mM stock solution in DMSO (95%). Serial 3-fold dilutions were freshly prepared in an appropriate vehicle (distilled H2O or Ringers solution). The initial concentration was added to the apical chamber as a 1000× concentrate in 5 μL, resulting in a final 1× concentration the 5 mL volume of the Ussing chamber. Subsequent additions of compound were added in a 3.3 μL volume of the 1000× serially diluted stock solution. At the completion of the concentration-response experiment, amiloride (10 μM) was added into the apical chamber to enable the total amiloride-sensitive current to be measured. An amiloride control IC50 was established at the start of each experiment.
Results are expressed as the mean % inhibition of the amiloride-sensitive ISC. Concentration-response curves were plotted and IC50 values generated using GraphPad Prism 3.02. Cell inserts were typically run in duplicate and the IC50 calculated on the mean % inhibition data.

SMILES | IC50 [nM]
C[N+](C)(CCCCNS(=O)(=O)c1ccc(Cl)cc1)CCNC(=O)c1nc(Cl)c(N)nc1N [Example 100, [4-(4-Chloro-benzenesulfonylamino)-butyl]-{2-[(3,5-diamino-6-chloro-pyrazine-2-carbonyl)-amino]-ethyl}-dimethyl-ammonium bromide] | 290
C[N+](C)(CCNC(=O)c1nc(Cl)c(N)nc1N)CCNS(=O)(=O)Cc1ccc(Cl)cc1 [Example 108, [2-(4-Chloro-phenylmethanesulfonylamino)-ethyl]-{2-[(3,5-diamino-6-chloro-pyrazine-2-carbonyl)-amino]-ethyl}-dimethyl-ammonium bromide] | 540
CCC[C@@H](CNC(=O)c1nc(Cl)c(N)nc1N)[N+](C)(C)CCCc1ccc(OC)cc1 [Example 120, ((S)-1-{[(3,5-Diamino-6-chloro-pyrazine-2-carbonyl)-amino]-methyl}-butyl)-[3-(4-methoxy-phenyl)-propyl]-dimethyl-ammonium trifluoroacetate] | 4
CCC[C@@H](CNC(=O)c1nc(Cl)c(N)nc1N)[N+](C)(C)CCCc1ccc(O)cc1 [Example 121, ((S)-1-{[(3,5-Diamino-6-chloro-pyrazine-2-carbonyl)-amino]-methyl}-butyl)-[3-(4-hydroxy-phenyl)-propyl]-dimethyl-ammonium trifluoroacetate] | 10
C[N+](CCCc1ccc(O)cc1)(CCCc1ccc(O)cc1)CCNC(=O)c1nc(Cl)c(N)nc1N [Example 122, {2-[(3,5-Diamino-6-chloro-pyrazine-2-carbonyl)-amino]-ethyl}-bis-[3-(4-hydroxy-phenyl)-propyl]-methyl-ammonium trifluoroacetate] | 130
CCC[C@@H](CNC(=O)c1nc(Cl)c(N)nc1N)[N+](C)(C)CCCc1ccc(OC[C@@H](O)CO)cc1 [Example 124, ((S)-1-{[(3,5-Diamino-6-chloro-pyrazine-2-carbonyl)-amino]-methyl}-butyl)-{3-[4-((S)-2,3-dihydroxy-propoxy)-phenyl]-propyl}-dimethyl-ammonium trifluoroacetate] | 25
C[N+](CCCc1ccc(OCC(O)CO)cc1)(CCCc1ccc(OCC(O)CO)cc1)CCNC(=O)c1nc(Cl)c(N)nc1N (stereo not drawn) [Example 125, {2-[(3,5-Diamino-6-chloro-pyrazine-2-carbonyl)-amino]-ethyl}-bis-{3-[4-(2,3-dihydroxy-propoxy)-phenyl]-propyl}-methyl-ammonium trifluoroacetate] | 240
C[N+](C)(CCCc1ccc(OCC(O)CO)cc1)CCNC(=O)c1nc(Cl)c(N)nc1N (stereo not drawn) [Example 126, {2-[(3,5-Diamino-6-chloro-pyrazine-2-carbonyl)-amino]-ethyl}-{3-[4-(2,3-dihydroxy-propoxy)-phenyl]-propyl-dimethyl-ammonium trifluoroacetate] | 2270
C[N+](C)(CCNC(=O)c1nc(Cl)c(N)nc1N)CCc1ccccc1 [Example 129, {2-[(3,5-Diamino-6-chloro-pyrazine-2-carbonyl)-amino]-ethyl}-dimethyl-phenethyl-ammonium trifluoroacetate] | 1140
C[N+](C)(C)CCNC(=O)c1nc(Cl)c(N)nc1N [Example 130, {2-[(3,5-Diamino-6-chloro-pyrazine-2-carbonyl)-amino]-ethyl}-trimethyl-ammonium iodide] | 5810
COC(=O)COc1ccc(CCC[N+](C)(C)CCNC(=O)c2nc(Cl)c(N)nc2N)cc1 [Example 132, {2-[(3,5-Diamino-6-chloro-pyrazine-2-carbonyl)-amino]-ethyl}-[3-(4-methoxycarbonylmethoxy-phenyl)-propyl]-dimethyl-ammonium trifluoroacetate] | 1490
C[N+](C)(CCCc1ccc(OCC(=O)O)cc1)CCNC(=O)c1nc(Cl)c(N)nc1N [Example 133, [3-(4-Carboxymethoxy-phenyl)-propyl]-{2-[(3,5-diamino-6-chloro-pyrazine-2-carbonyl)-amino]-ethyl}-dimethyl-ammonium trifluoroacetate] | 6520
